We go through 6 compounds from patent US20080241904A1, “PROCESS FOR PRODUCING ISOMALTOSE AND USES THEREOF” (KABUSHIKI KAISHA HAYASHIBARA SEIBUTSU KAGAKU KENKYUJO, priority 2001, published 2008).

The structures appear in SMILES notation.

Assay [1] concerns α-isomaltosyl-transferring enzyme. Nature of the assay: Influence of metal ions on activity of α-isomaltosyl-transferring enzyme (Strain C9). In kind it is biochemical, Bacillus globisporus C9. Conditions: in the presence of 1 mM of each metal ion, None = 100. On the procedure:
The α-isomaltosyl-transferring enzyme was assayed for enzymatic activity by dissolving panose in 100 mM acetate buffer (pH 6.0) to give a concentration of 2% (w/v) for a substrate solution, adding a 0.5 ml of an enzyme solution to 0.5 ml of the substrate solution, enzymatically reacting the mixture solution at 35° C. for 30 min, suspending the reaction mixture by boiling for 10 min, and quantifying glucose, among the cyclotetrasaccharide and glucose formed in the reaction mixture, by the glucose oxidase method. One unit activity of the α-isomaltosyl-transferring enzyme is defined as the enzyme amount that forms one micromole of glucose per minute under the above enzymatic reaction conditions.
The influence of metal ions on the activity of α-isomaltosyl-transferring enzyme was examined in the presence of 1 mM of each metal-ion according to the assay for the enzyme activity.

In assay [2] the test system is α-isomaltosylglucosaccharide-forming enzyme. Nature of the assay: Influence of metal ions on enzyme activity, Experiment 4-2 (Strain C11). The assay is classed as biochemical, Bacillus globisporus C11. Conditions: in the presence of 1 mM of each metal ion, None = 100.
Assay [3] concerns α-isomaltosylglucosaccharide-forming enzyme from Bacillus globisporus C9. Nature of the assay: Action of α-isomaltosylglucosaccharide-forming enzyme on saccharides as substrates (TLC), enzyme of Strain C9. The assay is classed as biochemical. On the set-up: key: −: it showed no change; +: it showed a slight reduction of the color of substrate spot and the formation of other reaction product; ++: it showed a high reduction of the color of substrate spot and the formation of other reaction product; +++: it showed a substantial disappearance of the color of substrate spot and the formation of other reaction product. The conditions noted are these: two units/g substrate, substrate 2% (w/v), 30° C., pH 6.0, 24 hours. On the procedure:
(§1) The action of α-isomaltosylglucosaccharide-forming enzyme on saccharides as substrates was tested. First, a solution of maltose, maltotriose, maltotetraose, maltopentaose, maltohexaose, maltoheptaose, isomaltose, isomaltotriose, panose, isopanose, α,α-trehalose (may be abbreviated as “trehalose” hereinafter), kojibiose, nigerose, neotrehalose, cellobiose, gentibiose, maltitol, maltotriitol, lactose, sucrose, erlose, selaginose, maltosyl glucoside, or isomaltosyl glucoside was prepared. To each of the above solutions was added two units/g substrate of the purified specimen of α-isomaltosylglucosaccharide-forming enzyme from Bacillus globisporus C9 in Experiment 2-1 or Bacillus globisporus C11 in Experiment 4-1, and each resulting solution was adjusted to give a substrate concentration of 2% (w/v) and incubated at 30° C. and pH 6.0 for 24 hours. The solutions before and after the enzymatic reactions were respectively subjected to thin-layer chromatography (abbreviated as “TLC” hereinafter). TLC was carried out in such a manner of separating saccharides by developing the solutions twice each using, as a developer, a mixture solution of n-butanol, pyridine, and water (=6:4:1), and, as a thin-layer plate, “[…] 60”, an aluminum plate (20×20 cm) for TLC commercialized by Merck & Co., Inc., Rahway, USA.; detecting the total saccharides in each mixture solution by spraying a mixture of sulfuric acid and methanol onto the aluminum plates to develop color of the total saccharides and detecting non-reducing saccharides in each mixture solution by the diphenylamine-aniline method.

The subject of assay [4] is α-isomaltosylglucosaccharide-forming enzyme from Bacillus globisporus C11. In words: Action of α-isomaltosylglucosaccharide-forming enzyme on saccharides as substrates (TLC), enzyme of Strain C11. In kind it is biochemical. On the set-up: key: −: it showed no change; +: it showed a slight reduction of the color of substrate spot and the formation of other reaction product; ++: it showed a high reduction of the color of substrate spot and the formation of other reaction product; +++: it showed a substantial disappearance of the color of substrate spot and the formation of other reaction product. Conditions: two units/g substrate, substrate 2% (w/v), 30° C., pH 6.0, 24 hours. The method, then: as §1

For assay [5], the system named is α-isomaltosylglucosaccharide-forming enzyme from Bacillus globisporus C9 strain. In words: Specificity of saccharide transferring reaction acceptor, enzyme of Strain C9. The assay is classed as biochemical. Conditions: 1.6% acceptor, 4% PINE-DEX #100 as donor, one unit/g donor, 30° C., pH 6.0, 24 hours; GLC or HPLC. The method, then:
(§2) Using different saccharides, it was tested whether the saccharides were used as saccharide transferring reaction acceptors for the α-isomaltosylglucosaccharide-forming enzyme. A 1.6% solution, as a solution of saccharide transferring reaction acceptor, of D-glucose, D-xylose, L-xylose, D-galactose, D-fructose, D-mannose, D-arabinose, D-fucose, L-sorbose, L-rhamnose, methyl-α-glucopyranoside (methyl-α-glucose), methyl-β-glucopyranoside ([…]), N-acetyl-glucosamine, sorbitol, α,α-trehalose, isomaltose, isomaltotriose, cellobiose, gentibiose, maltitol, lactose, sucrose, α-cyclodextrin, β-cyclodextrin, or γ-cyclodextrin, was prepared. To each solution with a saccharide concentration was added “PINE-DEX #100”, a partial starch hydrolysate, as a saccharide donor, to give a concentration of 4%, and admixed with one unit/g saccharide donor, d.s.b., of either of purified specimens of α-isomaltosylglucosaccharide-forming enzyme from Bacillus globisporus C9 strain obtained by the method in Experiment 2-1, Bacillus globisporus C11 strain obtained by the method in Experiment 4-1. The resulting mixture solutions were incubated at 30° C. and pH 6.0 except that the enzyme from Arthrobacter globiformis A19 strain was incubated at pH 8.4 for 24 hours. The reaction mixtures of the post-enzymatic reactions were analyzed on gas chromatography (abbreviated as “GLC” hereinafter) for monosaccharides and disaccharides as acceptors, and on HPLC for trisaccharides as acceptors to confirm whether these saccharides could be used as their saccharide transferring reaction acceptors. In the case of performing GLC, the following apparatuses and conditions are used: GLC apparatus, “GC-16A” commercialized by Shimadzu Corporation, Tokyo, Japan; column, a stainless-steel column, 3 mm in diameter and 2 m in length, packed with 2% “SILICONE OV-17/CHROMOSOLV W”, commercialized by GL Sciences Inc., Tokyo, Japan; carrier gas, nitrogen gas at a flow rate of 40 ml/min under temperature conditions of increasing from 160° C. to 320° C. at an increasing temperature rate of 7.5° C./min; and detection, a hydrogen flame ionization detector.
(§3) In the case of HPLC analysis, the apparatuses and conditions used were: HPLC apparatus, “CCPD” commercialized by Tosoh Corporation, Tokyo, Japan; column, “ODS-AQ-303” commercialized by YMC Co., Ltd., Tokyo, Japan; eluent, water at a flow rate of 0.5 ml/min; and detection, a differential refractometer.

The test system of assay [6] is α-isomaltosylglucosaccharide-forming enzyme from Bacillus globisporus C11 strain. In words: Specificity of saccharide transferring reaction acceptor, enzyme of Strain C11. In kind it is biochemical. The conditions noted are these: 1.6% acceptor, 4% PINE-DEX #100 as donor, one unit/g donor, 30° C., pH 6.0, 24 hours; GLC or HPLC. On the procedure: as §2, §3

As for `[Fe+2]` [Fe^2+], the Relative activity in assay [1] is on record as 96%; in assay [1] (listed as Fe^3+), 105%; in assay [2], 100%; in assay [2] (listed as Fe^3+), 102%.

Consider `OC[C@H]1O[C@H](OC[C@H]2O[C@H](OC[C@H]3OC(O)[C@H](O)[C@@H](O)[C@@H]3O)[C@H](O)[C@@H](O)[C@@H]2O)[C@H](O)[C@@H](O)[C@@H]1O` (stereo partly drawn) [Isomaltotriose, isomaltotriose], for which the “Enzymatic action, Enzyme of Strain C9” value in assay [3] is reported as “−”. In addition, in assay [4], the “Enzymatic action, Enzyme of Strain C11” value was “−”. Also, the “Product of saccharide transferring reaction, Enzyme of Strain C9” value (“Product … of Strain C9” for short) in assay [5] is listed as “++ (a saccharide-transferred product was detected in an amount of at least ten percent through transferring reaction to acceptor)”. Also, the “Product of saccharide transferring reaction, Enzyme of Strain C11” value (“Product … of Strain C11” for short) in assay [6] is “++ (a saccharide-transferred product was detected in an amount of at least ten percent through transferring reaction to acceptor)”.

On to `OC[C@H]1O[C@@H](O[C@H]2[C@H](O)[C@@H](O)C(O)O[C@@H]2CO)[C@H](O)[C@@H](O)[C@H]1O` (stereo partly drawn) [Lactose, lactose], for which, in assay [3], the “Enzymatic action, Enzyme of Strain C9” value is listed as “−”. In assay [4], the “Enzymatic action, Enzyme of Strain C11” value was “−”. The “Product … of Strain C9” value in assay [5] was “++ (a saccharide-transferred product was detected in an amount of at least ten percent through transferring reaction to acceptor)”. Besides, the “Product … of Strain C11” value in assay [6] is “++ (a saccharide-transferred product was detected in an amount of at least ten percent through transferring reaction to acceptor)”.

`OC[C@@H](O)[C@@H](O[C@H]1O[C@H](CO)[C@@H](O)[C@H](O)[C@H]1O)[C@H](O)[C@@H](O)CO` [Maltitol, maltitol]: the “Enzymatic action, Enzyme of Strain C9” value in assay [3] is reported as “−”. Moreover, the “Enzymatic action, Enzyme of Strain C11” value in assay [4] is reported as “−”. In addition, the “Product … of Strain C9” value in assay [5] is reported as “++ (a saccharide-transferred product was detected in an amount of at least ten percent through transferring reaction to acceptor)”. Further, the “Product … of Strain C11” value in assay [6] is “++ (a saccharide-transferred product was detected in an amount of at least ten percent through transferring reaction to acceptor)”.

Take `OC[C@H]1O[C@@](CO)(O[C@H]2O[C@H](CO)[C@@H](O)[C@H](O)[C@H]2O)[C@@H](O)[C@@H]1O` [Sucrose, sucrose]: the “Enzymatic action, Enzyme of Strain C9” value in assay [3] is “−”. In addition, the “Enzymatic action, Enzyme of Strain C11” value in assay [4] is “−”. For the same compound, in assay [5], the “Product … of Strain C9” value is recorded as “++ (a saccharide-transferred product was detected in an amount of at least ten percent through transferring reaction to acceptor)”. Moreover, in assay [6], the “Product … of Strain C11” value is given as “++ (a saccharide-transferred product was detected in an amount of at least ten percent through transferring reaction to acceptor)”.

In the case of `OC[C@H]1O[C@H](O[C@H]2O[C@H](CO)[C@@H](O)[C@H](O)[C@H]2O)[C@H](O)[C@@H](O)[C@@H]1O` [Trehalose, α,α-trehalose], the “Enzymatic action, Enzyme of Strain C9” value in assay [3] is “−”. Moreover, the “Enzymatic action, Enzyme of Strain C11” value in assay [4] is recorded as “−”. Besides, the “Product … of Strain C9” value in assay [5] is listed as “++ (a saccharide-transferred product was detected in an amount of at least ten percent through transferring reaction to acceptor)”. Also, the “Product … of Strain C11” value in assay [6] is on record as “++ (a saccharide-transferred product was detected in an amount of at least ten percent through transferring reaction to acceptor)”.
